Reference: patent US20140161720A1, “TREATMENT OF ANGIOGENIC- OR VASCULAR-ASSOCIATED DISEASES” (THE GENERAL HOSPITAL CORPORATION, priority 2011, published 2014)
“Also recorded” adds a separate entry of the source.

How the values were obtained:
MDA-MB-231 cells = experiment: High-throughput cell adhesion screen (cells remaining attached); format: cell-based, human; conditions: FIG. 1C
Experimental: A cell-based readout system was used for compound selection. For the cell-based screening, an optimal cell density of 10,000 breast cancer MDA-MB-231 cells/well was selected to produce the most prominent signal. The plated cells were incubated with each library compound, washed with PBS, and the Cell Titer-Glo (Promega) reagent was used to detect the number of cells remaining attached in each well. This ATP-based detection has a linear relationship between the luminescent signal and the number of cells per well. Of the 50,000 compounds screened, 86 library compounds (0.172% of screened compounds) were selected at 1.67 μM concentration for the second screening step. […] As a further test of toxicity, DAL was injected intraperitoneally at 100 mg/kg in SCID mice and signs of toxicity including cachexia, ruffled fur, diarrhea, anorexia, skin ulceration, and toxic death were monitored.
A screening strategy was developed to identify potential agents that target adhesion of endothelial cells or cancer cells to their substrate. […] The initial screening step quantified the number of cells remaining attached to their wells following incubation with each compound and subsequent washing steps. […] The agents that affect cell adhesion can be monitored through remodeling of actin filaments. […] Changes in actin assembly and cell shape after treatment with 12 compounds were determined. […]

[1] = tested on: vasculature in adult fish; experiment: Effect on vasculature in adult zebrafish; format: in vivo; conditions: mature vasculature
HUVEC = experiment: In vitro vascular network formation on matrigel; format: cell-based, human
Experimental: For F-actin visualization, HUVECs were plated and treated with saline or DAL (10 μM) for three hours. After fixing and permeabilizing these cultured cells, the cells were subsequently stained with phalloidin. […] Existing cordlike structures, when exposed to 10 μM of DAL for 3 hours, were also disrupted. […] HUVEC monolayers were disrupted mechanically with a pipette tip and the migration of cells to “heal” the wound was monitored using microscopy.
To assess whether DAL affects EC functions, in vitro models of vascular network formation from HUVECs were used. After overnight cultivation in matrigel, HUVECs spontaneously assemble into cord-like structures that resemble vascular networks. […] Since DAL affects actin cytoskeleton assembly, the effect of DAL on cell motility was next assessed. A scratch wound assay was utilized to study HUVEC motility based on the healing rate of a wounded monolayer.

[2] = tested on: orthotopic 4T1 mammary tumors; experiment: Tumor growth delay study, 4T1; format: in vivo, female SCID mice; conditions: 4T1 tumors, start ~200 mm^3, 37.5 mg/kg daily i.p.
Experimental: To assess the anti-tumor effects of DAL, female SCID mice bearing orthotopic 4T1 or E0771 mammary tumors were treated with daily i.p. injections of 37.5 mg/kg DAL or saline. In order to calculate tumor volumes, the major and minor axis diameters were measured with calipers and the tumor volume was calculated by assuming a spherical shape based on the average of these two dimensions. The tumors were implanted in the mammary fat pad and allowed to grow to a starting size (small ˜100 mm^3 tumors for E0771, large ˜200 mm^3 tumors for 4T1) over ˜2 weeks. To ensure that tumors in the two groups were of similar growth rates, the treatment with saline or DAL was begun in pairs of tumors with similar sizes and growth times. Tumor volumes were measured every other day until the tumors reached an average of ˜10 mm in diameter. Tumor growth was quantified with the doubling rate, and calculated by fitting an exponential growth curve to the data for tumor size versus time.
As shown in Example 3, DAL has an antivascular effect in orthotopic mammary tumors in mice. Thus, the antitumor effect of DAL was next assessed. […] The effect of DAL on the growth of orthotopic 4T1 and E0771 mammary tumors with daily treatment of DAL or saline was evaluated (FIG. 4A). 37.5 mg/kg of DAL was used for these experiments based on the pharmacokinetics results as well as in vitro and in vivo data. […]

RhoA = RhoA activity affinity purification assay (rhotekin RBD); format: cell-based, human; conditions: HUVEC cells
Text: Without wishing to be bound by theory, DAL brings about its antivascular effects by destabilizing cell adhesion through the actin cytoskeleton. It was next sought to identify which specific adhesion pathway it targets. Mechanical attachment at cell-cell adherens and tight junctions is regulated by dynamic changes in the actin cytoskeleton. Adherens junctions are composed of E-cadherin/β-catenin complexes and are connected to the actin cytoskeleton via sa-catenin (25-26), while tight junctions consist of transmembrane claudins and occludin and are associated with the actin cytoskeleton via ZO proteins (27-28). Therefore, potential targets of DAL in signaling pathways involved in actin remodeling were evaluated. […] Then, it was sought to determine whether Rho-GTPase family members are targets for DAL due to the disruption of cell adhesion and actin network remodeling along with inhibited motility. Rho-GTPases (e.g., Rac1) plays an important role in actin cytoskeletal organization and is involved in the coordination of cell adhesion (29). Furthermore, Rac1 is responsible for stabilizing endothelial cell junctions by opposing actin remodeling by Rho (30). In order to migrate, cancer cells employ dynamic remodeling of the actin cytoskeleton, form protrusive structures and generate forces necessary to produce cell translocation in the process regulated by Rho-GTPase Rac1. […]

CC1(C)C=CC2=C(O1)C(=O)c1ccccc1C2=O [DAL, dehydro-alpha-lapachone]
cell adhesion properties (MDA-MB-231 cells): lost their adhesion properties | effects on the vasculature in adult fish [1]: did not show any effects | effect on existing cordlike networks (HUVEC; 10 μM for 3 hours): complete reorganization of existing networks; also recorded: disrupted | HUVEC network formation on matrigel (HUVEC; after 24 hours / overnight cultivation): blocks HUVEC network formation; also recorded: disjoined networks | tumor volume doubling time [2]: 11.21 ± 3.53 days | RhoA activity (RhoA): no effect
